In one data set the target is T1, MKK7-TIPRL interaction (Homo sapiens, UniProt O14733+O75663).
T1 sequence (O14733 1-419): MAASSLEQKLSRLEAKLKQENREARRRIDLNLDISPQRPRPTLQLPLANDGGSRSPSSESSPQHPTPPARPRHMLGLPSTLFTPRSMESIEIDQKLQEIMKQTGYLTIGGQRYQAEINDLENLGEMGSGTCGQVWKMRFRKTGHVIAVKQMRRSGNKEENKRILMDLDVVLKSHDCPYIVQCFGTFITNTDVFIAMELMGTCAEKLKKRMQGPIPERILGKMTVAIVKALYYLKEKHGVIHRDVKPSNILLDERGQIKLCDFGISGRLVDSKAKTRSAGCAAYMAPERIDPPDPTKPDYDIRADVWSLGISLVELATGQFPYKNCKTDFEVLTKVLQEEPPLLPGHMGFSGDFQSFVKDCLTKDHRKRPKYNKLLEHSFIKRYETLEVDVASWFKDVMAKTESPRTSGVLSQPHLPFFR
T1 sequence (O75663 1-272): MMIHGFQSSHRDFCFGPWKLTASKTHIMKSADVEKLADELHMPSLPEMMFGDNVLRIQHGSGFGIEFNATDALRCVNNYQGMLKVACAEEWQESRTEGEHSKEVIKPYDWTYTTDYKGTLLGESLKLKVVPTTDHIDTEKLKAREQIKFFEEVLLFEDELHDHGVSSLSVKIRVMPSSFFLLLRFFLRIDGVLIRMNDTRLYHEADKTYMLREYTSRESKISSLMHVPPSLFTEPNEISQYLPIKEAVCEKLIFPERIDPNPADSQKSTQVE
The experiment in a line: ELISA of the MKK7-TIPRL interaction. The data set is classed as binding. Also on record: The full-length cDNAs of human TIPRL and MKK7 were provided by the Korea Human Gene Bank; His; made in house. From the text:
The full-length cDNAs of human TIPRL and MKK7 were provided by the Korea Human Gene Bank (Korea Research Institute of Biosciences and Biotechnology, South Korea). TIPRL and MKK7 were subcloned into the pET21a vector (purchased from Novagen, San Diego, CA) and the pEBG vector containing a GST tag (kindly provided by Y. Liu, National Institute on Aging, National Institutes of Health) to construct the His-tagged and the GST-tagged plasmids, respectively. Purified TIPRL was conjugated with horseradish peroxidase (HRP). To screen chemical compounds using HTS, an ELISA system that detected the TIPRL and MKK7 interaction was constructed. Briefly, 96-well ELISA plates were coated with GST-MKK7 dissolved in PBS-T buffer (PBS containing 0.05% Tween-20 and 0.5% BSA), followed by the addition of 100 μl of TIPRL-HRP dissolved in PBS-T buffer. After 1 h, 100 μl of tetramethylbenzidine (TMB) solution was added to each well and the absorbance was read at 450 nm.
For orientation: ELISA stands for enzyme-linked immunosorbent assay.

Data set [1] can be described thus: MTT cell viability assay, Huh7 cells. The data set is classed as cell-based, human. As to conditions: human, Huh7 cells, without TRAIL; for viability: MTT, Supplementary Table 2, read-out: Cell viability assay (%) Compound only. How it is done:
(§1) Cell viability was assessed using a 3-(4,5-dimethylthiazol-2-yl)-2,5-diphenyltetrazolium bromide (MTT, Sigma-Aldrich, St. Louis, USA) assay. The cells were seeded at a density of 1 × 10^4 cells per well and treated with the lead compounds and/or TRAIL. After 24 or 48 h, MTT (2 mg/ml) was added to each well, and the absorbance was measured using a microplate reader (Bio-Rad, Hercules, USA) at 570 nm. The cell viability was calculated as the percentage of viable cells in the drug-treated group versus the untreated control using the following equation: cell viability (%) = [OD (drug)-OD (blank)]/[OD (control)-OD (blank)] × 100.
For orientation: Tetrazolium dyes change colour on reduction, which living cells bring about.

The subject of a further data set is Huh7 cells. As to the kind of experiment: MTT cell viability assay, Huh7 cells. As to conditions: for effect on cell viability / cell death of Huh7 cells in the presence of TRAIL: MTT, co-treatment with TRAIL. The data set is classed as cell-based, human. Here is the method: as §1
The subject of the next data set is caspase-3. The experiment in a line: Caspase 3 activity assay in Huh7 cells. Type of data set: cell-based, human. Particulars: each compound at its working concentration and time of the table. Here is the method:
The caspase 3 activity was measured using a caspase-3 luminescent assay kit (Promega, Madison, WI, USA), according to the manufacturer's instructions, and a luminescence plate reader (Molecular Devices Co., Sunnyvale, USA).

Another data set concerns caspase-3 and PARP. As to the kind of experiment: Western blot of cleaved caspase-3 and PARP in Huh7 cells. The data set is classed as cell-based, human. Particulars: lead compounds co-treated with TRAIL 100 ng/ml, TRAIL tested alone. Here is the method: The cells were lysed in lysis buffer (50 mM Tris-HCl, pH 7.4, 150 mM NaCl, 1% Triton™ X-100, 0.1% SDS, 1 mM EDTA, 1 mM Na3VO4, 1 mM NaF, and protease inhibitor cocktail) and clarified by centrifugation at 14,000×g for 20 min at 4°C. The protein samples were then subjected to Western blotting with the indicated antibodies.
In general terms: A western blot detects proteins with antibodies after separation by electrophoresis.

The next data set relates to Huh7 tumor xenografts. As to the kind of experiment: In vivo Huh7 xenograft assay. Also on record: species or system BALB/c nude mice. From the text: Five-week-old female BALB/c nude mice were purchased from SLC Japan and were maintained in accordance with the guidelines of the Institutional Review Committee for Animal Care and Use of the Korea Research Institute of Bioscience and Biotechnology. Protocol approval was obtained from the same committee.
Huh7 cells were harvested and subcutaneously injected (5 × 10^6 cells/mouse) into nude mice (N = 6/group for TRT-0173 or TRT-0029 experiments). When the tumor volume reached ~100 mm^3, the mice were divided into four groups and treated with vehicle, TRAIL (2.5 mg/kg, intraperitoneal), lead compound (TRT-0029 or TRT-0173, 30 mg/kg, intravenously), or lead compound (30 mg/kg, intravenously) combined with TRAIL (2.5 mg/kg, intraperitoneal) daily for 11 days (11 treatments in total). The tumor volumes were measured every 2 days for 11 days after treatment, and tumor volume was calculated according to the following equation: V (mm^3) = width^2 (mm^2) × length (mm)/2. Body weight and tumor mass were measured 11 days after treatment.

[2] abbreviates: hit compounds from the in-house library, Supplementary Table 2, read-out: ELISA IC50.

Like-named read-outs stand apart in the source and are kept apart here.

Turning to `CC(=O)c1cc(-n2ncc3cc(NS(=O)(=O)c4ccccc4)ccc32)c(Cl)cc1Cl` [Compound 3], the IC50 on MKK7-TIPRL interaction (setting [2]) worked out at 1.7 µM. Besides, in data set [1], the viability was determined as 42%.

Consider `COc1ccc(S(=O)(=O)Nc2ccc3c(cnn3-c3ccc(F)cc3)c2)cc1` [Compound 4], for which the IC50 on MKK7-TIPRL interaction (setting [2]) was found to be 0.089 µM. For the same molecule, the viability in data set [1] stood at 86%.

In the case of `Nc1ccc2[nH]ncc2c1` [Compound 5], the IC50 at MKK7-TIPRL interaction (setting [2]) was determined as 1.4 µM. For the same molecule, in data set [1], the viability worked out at 81%.

Consider `O=Cc1cc([N+](=O)[O-])ccc1F` [Compound 6], for which the IC50 on MKK7-TIPRL interaction (setting [2]) was 2 µM. Moreover, the viability in data set [1] is 93%.

Consider `O=[N+]([O-])c1ccc(F)c(/C=N/Nc2ccc(F)cc2)c1` [Compound 7], for which the concentration for half-maximal inhibition (IC50) on MKK7-TIPRL interaction (setting [2]) was 8.9 µM. In addition, the viability in data set [1] amounted to 89%.

For the molecule `O=[N+]([O-])c1ccc2c(cnn2-c2ccc(F)cc2)c1` [Compound 8], the IC50 at MKK7-TIPRL interaction (setting [2]) is 2.8 µM. In addition, the viability in data set [1] was 69%.

For the molecule `Nc1ccc2c(cnn2-c2ccc(F)cc2)c1` [Compound 9], the IC50 on MKK7-TIPRL interaction (setting [2]) stood at 1 µM. In addition, the viability in data set [1] was found to be 90%.

In the case of `CC(=O)c1cc(-n2cc3cc(N)ccc3n2)c(Cl)cc1Cl` [Compound 10], at MKK7-TIPRL interaction (setting [2]), the IC50 stood at 3.5 µM. Further, the viability in data set [1] is 111%.

Turning to `CC(=O)c1cc(-n2ncc3cc(N)ccc32)c(Cl)cc1Cl` [TRT-0002], the half-inhibitory concentration (IC50) at MKK7-TIPRL interaction (setting [2]) turned out to be 1 µM; on MKK7-TIPRL interaction (newly synthesized TRT-0002, ELISA, read-out: IC50 to inhibit the MKK7-TIPRL interaction) it was 1.4 µM. Besides, in data set [1] (Huh7, MTT, 40 µM, 48 hrs, Supplementary Table 3, read-out: Cell viability assay Compound only), the viability at 48 h, 40 µM came to 81%. Moreover, in data set [1], the viability came to 80%. In addition, in the data set on Huh7 cells (Homo sapiens, Huh-7, Huh7, MTT, 40 µM, 48 hrs, with TRAIL, Supplementary Table 3, read-out: Cell viability assay Compound + TRAIL), the viability at 40 µM was 29%. The entries for the “effect on cell viability / cell death of Huh7 cells in the presence of TRAIL” value in the data set with Huh7 cells and in the data set with Huh7 cells (listed as 16) were “significantly enhanced TRAIL-induced cell death” and “synergetic effect”, respectively. For the same molecule, the “Caspase 3 activity Compound + TRAIL/Compound” value with caspase-3 is 1.80 ratio.

B1: TRAIL: human TRAIL protein, member of the TNF superfamily, used as co-treatment (protein, UniProt P50591 1-281, looked up)
Tumor necrosis factor ligand …: MAMMEVQGGPSLGQTCVLIVIFTVLLQSLCVAVTYVYFTNELKQMQDKYSKSGIACFLKEDDSYWDPNDEESMNSPCWQVKWQLRQLVRKMILRTSEETISTVQEKQQNISPLVRERGPQRVAAHITGTRGRSNTLSSPNSKNEKALGRKINSWESSRSGHSFLSNLHLRNGELVIHEKGFYYIYSQTYFRFQEEIKENTKNDKQMVQYIYKYTSYPDPILLMKSARNSCWSKDAEYGLYSIYQGGIFELKENDRIFVSVTNEHLIDMDHEASFFGAFLVG
For B1, in the data set with caspase-3 and PARP, the “apoptosis signals (cleaved caspase-3, PARP) by Western blotting” value is listed as “did not activate caspase-3”. For the same molecule, the “anti-cancer effects of TRAIL alone in vivo” value in the data set with Huh7 tumor xenografts (5 and 2.5 mg/kg, data not shown) was “dose-dependent anti-cancer effects”. For the same molecule, in the data set with Huh7 tumor xenografts (TRAIL 2.5 mg/kg i.p. daily for 11 days), the “reduction of average tumor mass, TRAIL alone” value is on record as 24.8%.

The IC50 is the midpoint of a concentration-inhibition curve. What is called viability is a read-out of living cells in per cent, often relative to untreated cells.

The values above are taken from article PMC5762535, “Novel indazole-based small compounds enhance TRAIL-induced apoptosis by inhibiting the MKK7-TIPRL interaction in hepatocellular carcinoma” (Oncotarget, 2017).
